These results are taken from ChEMBL document CHEMBL1132005, “Structure-activity relationship in two series of aminoalkyl substituted coumarin inhibitors of gyrase B” (1999).

Test [1] deals with Enterococcus faecium. Briefly: In vitro antibacterial activity against Enterococcus faecium 02D31P2 VanTeiEry-R. The format is functional.
Test [2] addresses DNA gyrase (Escherichia coli) (UniProt P0AES6+P0AES4). Briefly: In vitro inhibition of supercoiling activity of Escherichia coli DNA gyrase as the ratio of IC50 of Novobiocin and IC50 of compound. It counts as protein-complex assay.
For test [3], the system named is Staphylococcus epidermidis. Briefly: In vitro antibacterial activity against Staphylococcus epidermidis 012GO39 OxaTei-R. The format is functional.
The test system of test [4] is Staphylococcus aureus. Briefly: In vitro antibacterial activity against Staphylococcus aureus 011GO76 OfloOxaEry-R. It counts as functional.
In test [5] the test system is Staphylococcus aureus. Nature of the test: In vitro antibacterial activity against Staphylococcus aureus 011HT1 Nov-R. It counts as functional.
For test [6], the system named is Staphylococcus aureus. Briefly: In vitro antibacterial activity against Staphylococcus aureus 011HT3. It counts as functional.
In test [7] the test system is Streptococcus pyogenes. Nature of the test: In vitro antibacterial activity against Streptococcus pyogenes O2A1UC1.

What is called MIC is the lowest concentration found to suppress growth.

≈ marks a conversion by molar mass, not a printed value.

For the compound `CO[C@@H]1[C@@H](OC(=O)c2ccc(C)[nH]2)[C@@H](O)[C@H](Oc2ccc3c(OCCN4CCN(C)CC4)cc(=O)oc3c2C)OC1(C)C`, the MIC in test [1] is 40 µg/mL (≈ 66.7 µM); in test [3], 1.2 µg/mL (≈ 2 µM); in test [4], 2.5 µg/mL (≈ 4.17 µM); in test [5] it was 20 µg/mL (≈ 33.4 µM); in test [6], 1.2 µg/mL (≈ 2 µM); in test [7] it was 10 µg/mL (≈ 16.7 µM). The Ratio in test [2] is 0.5.
Turning to `CO[C@@H]1[C@@H](OC(=O)c2ccc(C)[nH]2)[C@@H](O)[C@H](Oc2ccc3c(OCCN4CCOC(CO)C4)cc(=O)oc3c2C)OC1(C)C` (some centres undefined), the MIC was more than 40 µg/mL in test [1]; 0.6 µg/mL (≈ 0.973 µM) in test [3]; more than 40 µg/mL in test [4]; 40 µg/mL (≈ 64.9 µM) in test [5]; 1.2 µg/mL (≈ 1.95 µM) in test [6]; 10 µg/mL (≈ 16.2 µM) in test [7]. The Ratio in test [2] was determined as 0.25.
With `CO[C@@H]1[C@@H](OC(=O)c2ccc(C)[nH]2)[C@@H](O)[C@H](Oc2ccc3c(CN4CCCC4)cc(=O)oc3c2C)OC1(C)C`, the MIC in test [1] was more than 40 µg/mL; in test [3], 2.5 µg/mL (≈ 4.62 µM); in test [4] it was 5 µg/mL (≈ 9.25 µM); in test [5] it was 40 µg/mL (≈ 74 µM); in test [6], 2.5 µg/mL (≈ 4.62 µM); in test [7], 10 µg/mL (≈ 18.5 µM). In addition, in test [2], the Ratio worked out at 0.5.
As for `CO[C@@H]1[C@@H](OC(=O)c2ccc(C)[nH]2)[C@@H](O)[C@H](Oc2ccc3c(CSc4ncc[nH]4)cc(=O)oc3c2C)OC1(C)C`, the MIC in test [1] came to 20 µg/mL (≈ 35.1 µM); in test [3] it was 0.6 µg/mL (≈ 1.05 µM); in test [4] it was 10 µg/mL (≈ 17.6 µM); in test [5], 20 µg/mL (≈ 35.1 µM); in test [6], 0.6 µg/mL (≈ 1.05 µM); in test [7] it was 2.5 µg/mL (≈ 4.39 µM). In test [2], the Ratio was determined as 0.35.
Consider `CO[C@@H]1[C@@H](OC(=O)c2ccc(C)[nH]2)[C@@H](O)[C@H](Oc2ccc3c(CN4CCNCC4)cc(=O)oc3c2C)OC1(C)C`, for which the MIC in test [1] was more than 40 µg/mL; in test [3], 5 µg/mL (≈ 9 µM); in test [4], 20 µg/mL (≈ 36 µM); in test [5] it was more than 40 µg/mL; in test [6], 10 µg/mL (≈ 18 µM); in test [7] it was 20 µg/mL (≈ 36 µM). For the same compound, in test [2], the Ratio worked out at 2.3.
As for `CO[C@@H]1[C@@H](OC(=O)c2ccc(C)[nH]2)[C@@H](O)[C@H](Oc2ccc3c(OCCN(C)C)c(Cl)c(=O)oc3c2C)OC1(C)C`, the MIC in test [1] is more than 40 µg/mL; in test [3] it was 5 µg/mL (≈ 8.63 µM); in test [4] it was 20 µg/mL (≈ 34.5 µM); in test [5] it was more than 40 µg/mL; in test [6], 10 µg/mL (≈ 17.3 µM); in test [7], 40 µg/mL (≈ 69.1 µM). For the same compound, in test [2], the Ratio stood at 0.33.
For `CO[C@@H]1[C@@H](OC(=O)c2ccc(C)[nH]2)[C@@H](O)[C@H](Oc2ccc3c(OCCn4cncn4)cc(=O)oc3c2C)OC1(C)C`, the minimal inhibitory concentration (MIC) in test [1] was 10 µg/mL (≈ 17.6 µM); in test [3], less than 0.04 µg/mL; in test [4] it was 10 µg/mL (≈ 17.6 µM); in test [5], 20 µg/mL (≈ 35.2 µM); in test [6], 0.3 µg/mL (≈ 0.528 µM); in test [7], 1.2 µg/mL (≈ 2.11 µM). In addition, the Ratio in test [2] was determined as 0.57.
